Here are results for one compound from publication PMC11645267, “Novel pharmacologic inhibition of lysine-specific demethylase 1 as a potential therapeutic for glioblastoma” (Cancer Gene Therapy, 2024).

For the assay, the system named is GSC and LN229 cells. As to the kind of experiment: PARP cleavage (apoptosis) by western blot. The settings on record: GSC1228, GSC222, GSC316, LN229; 5 μM. Type of assay: cell-based. The text has this:
Super-enhancers consist of enhancer clusters with abundant binding of transcription factors and are highly enriched with H3K27ac marks. The H3K4me2 increased regions included the MYC locus and H3K4me2 de novo regions comprised Nestin and SOX2 loci (Fig. 2F, Supplementary Fig. S5A). These regions were also identified as super-enhancers in GSCs using data from our previous study (Fig. 2F). Compared to the large increase in H3K4me2 in these regions, changes in H3K4me3 were subtle after S2172 treatment (only 2582 regions were acquired modification) (Fig. 2C). Increasing the me2/me3 ratio at H3K4 is associated with reduced gene expression.
A mRNA expression of stem cell marker genes following 96 h treatment of GSC1228 with S2172 (5 μM). The y-axis indicates the expression change relative to DMSO-treated cells. Error bar indicates the SD. *P < 0.05. B Left panel, western blot analysis of MYC, Nestin, and SOX2 after treatment of GSC1228 with either DMSO or S2172 (5 μM) for 96 h. β-actin (ACTB) was used as the loading control. Right panel, Quantification of band signal intensities from the western blot. […] The ratio was calculated by dividing the cleaved-PARP band intensity by the full length-PARP band intensity. […]
[…] Quantification of signal intensity of western blot (right panel). […] Ratio was calculated by dividing cleaved band intensity by total protein band intensity. […]
Background: A western blot detects proteins with antibodies after separation by electrophoresis.

As to `NC1CCC(NC2CC2c2cc(F)cc(F)c2OCc2ccccc2)CC1` (stereo not shown) [S2172], the “apoptosis, increased cleaved PARP” value was “induced apoptosis”.
